This is an account of results in a melting point compilation (Tetko et al.; mined from patent text by program, amines drawn as free bases though some values may be those of a salt).

Regarding `CCCCc1nc(Cc2ccc(-c3ccccc3C(=O)OC)cc2)c2ccccc2n1`, the melting point (as a rule, the temperature of the solid-liquid transition) was 76 °C.
The same measure for `NC(=O)CNC(=O)CN1CCCC1=O`: 147 to 148 °C.
The same measure for `COc1cc(C(=O)NC=NC(=O)ON(c2ccc(C)c(NC(=O)c3ccc(C(=O)c4ccccc4)cc3)c2)C(C)(C)C)cc(OC)c1OC`: 96 °C; for `Cc1ccccc1Cc1nc2cc(Cl)c(S(N)(=O)=O)cc2[nH]1`: 226 to 230 °C; for `CS(=O)(=O)Oc1ccc(C=O)cc1`: 61 to 63 °C.
The same measure for `Cc1c(C)c(NC(=O)CC(C)(C)C)c2c(c1C)C(=O)C(C)(C)O2`: 158 to 159 °C; for `CN1c2ccccc2[C@H]2Cc3ccccc3[C@H]21` (relative stereo): 76 to 77 °C; for `CCOC(=O)CNc1ncccc1NC(=O)c1cccc(Cl)c1`: 143 to 144 °C.
In turn, `NCCNC(=O)CN1CCC(O)C1=O` (configuration not stated) showed a melting point of 110 to 112 °C.
As for `CC(=O)Cc1ccc(CC2SC(=O)NC2=O)cc1` (configuration not stated), the figure is 133 to 135 °C.
For `CN1C(=O)[C@H](NC(=O)c2cc3cc(Cl)ccc3[nH]2)N=C(c2ccccc2)c2ccccc21`, the melting point was 160 to 164 °C.
`CN(C)Cc1ccnc(CSCCNc2ncc(Cc3ccn(C)c(=O)c3)c(=O)[nH]2)c1` registered a melting point of 137 to 139 °C.
The molecule `O=C(Nc1ccc(Oc2ccnc(N3CCCC(O)C3)n2)c2ccccc12)c1cc(F)cc(N2CCCCC2)c1` (configuration not stated) displayed a melting point of 93 to 95 °C.
The same measure for `COP(=O)(Cc1cc(Cl)c(O)c(C(C)(C)C)c1)OC`: 107 °C; for `CCOC(=O)C(=O)CC(=O)CC(=O)c1ccc(Cl)cc1`: 93 to 94 °C.
As for `CCCN1C(=O)CN(c2ccccc2)C1=O`, the figure is 97 °C.
As for `Cc1nn(C)c(=O)c(-n2nc(-c3ccc(C(F)(F)F)cc3)cc2C)c1O`, the figure is 191 to 194 °C.
`O=c1[nH]c2ccc(OC3CCCC3)cc2n1C1CCCCC1` came in with a melting point of 242 °C.
The same measure for `CSc1sc(C(=O)N2CCOCC2)c2c1-c1oncc1C(C)(C)C2`: 175 to 177 °C; for `CCCCCCCCCCc1ccc2c(c1)C(=O)C(=COC(=O)c1ccccc1)CC2`: 64 to 66 °C; for `Cc1cn(-c2cc(NC(=O)c3ccc(C)c(C#Cc4ccc(NC5CC5)nn4)c3)cc(C(F)(F)F)c2)cn1`: 226 to 228 °C.
`COc1cc(C(=O)C(C)C)ccc1O`: the melting point was in the range of 86 to 87 °C.
Take `CCCCCCC(=O)c1ccc2c([N+](=O)[O-])c(O)c(O)cc2c1`: the melting point is 97 to 98 °C.
As for `O=C(O)c1ccc2c(c1)S(=O)(=O)c1ccc([N+](=O)[O-])cc1C=C2`, the figure is 310 to 312 °C.
The same measure for `O=C1NC(=O)C(Cc2ccc(OCCc3cccc4ccccc34)cc2)S1` (configuration not stated): 121 to 122 °C.
As for `CC(C)(C)NC(=O)[C@@H]1CCCN1C(=O)[C@@H](O)[C@H](Cc1ccccc1)NC(=O)[C@H](CC(N)=O)NC(=O)OC(C)(C)C`, the melting point is 113 to 115 °C.
As for `COc1ccc(CNC(=O)c2cc3c(=O)n(CCOc4ccc(Br)cc4)c(=O)n(C)c3s2)cc1`, the figure is 184 to 185 °C; as for `COC(=O)COc1cccc(CCN(C)CCCC(C#N)(c2ccc(OC)c(OC)c2)C(C)C)c1` (configuration not stated), 96 to 100 °C.
As for `CC12CCC(Oc3c(F)c(F)c(C(F)(F)F)c(F)c3F)=CC1=CCC1C2CCC2(C)C(c3cccnc3)=CCC12` (configuration not stated), the figure is 166 °C; as for `CC(C)(C)C(=O)Nc1onc2c1CCC2`, 113 °C; as for `CCOCc1nc2c(N)nc3cc(-c4cccnc4)ccc3c2n1CCCCNC(=O)OC(C)(C)C`, 117 to 119 °C.
`COc1ccc(C=CC(=O)Nc2ccccc2C(=O)O)cc1O` returned a melting point of 215 to 216 °C.
`O=c1cc(-c2ccc3nccnc3c2)oc2ncccc12` registered a melting point of 272 to 275 °C.
`CN(C)CCCC(=O)Cc1ccc2c(c1)Cc1cccnc1O2` yielded a melting point of 76 to 78 °C.
The same measure for `CC(C)NC(=O)Nc1nc(Cc2c(Cl)cccc2Cl)nc(Nc2ccc(C#N)cc2)n1`: 267 to 268 °C; for `CCN(CC)c1ccc(/C=C/C(=O)CC(=O)/C=C/c2ccc3cc[nH]c3c2)cc1`: 110 to 118 °C; for `CC(=O)SCC(Cc1ccccc1)NC(=O)N1CCN(C)CC1` (single isomer, unassigned; (+)): 78 °C.
For `COc1ccc(C=C2SC(=O)NC2=O)cc1C(=O)NCc1ccc(C(F)(F)F)cc1`, the melting point was in the range of 210 to 212 °C.
Regarding `NS(=O)(=O)c1ccc(-c2cn(-c3nc(-c4ccc(C(F)(F)F)cc4)cc(C(F)(F)F)n3)cn2)s1`, the melting point was found to be 281 °C.
The same measure for `C[C@H](c1ccccc1)N1C(=O)N(Cc2ccccc2)[C@@H]2C(=O)OC[C@@H]21`: 163 to 164 °C; for `CCCCCCCCCCCC(=O)NCc1ccsc1`: 83 to 84 °C; for `CCc1ccc(-c2oc3cccc4c3c2C=CC4=O)cc1`: 186 °C.
As to `CC(C)(C)NC(=O)[C@@H]1C[C@H](Cl)CN1C(=O)[C@@H](O)[C@H](Cc1ccccc1)N(Cc1ccccc1)Cc1ccccc1`, the melting point was in the range of 64 to 67 °C.
The same measure for `COc1ccc(CN2CC(=O)Nc3ccc(OC)cc3C2=O)c(OC)c1`: 196 °C.
Regarding `Cc1ccc2c(c1)c(=O)c1c(cnn1C)n2CCCl`, the melting point was in the range of 116 to 119 °C.
The same measure for `CCNS(=O)(=O)c1cncc([N+](=O)[O-])c1`: 117 to 118 °C; for `CC(C)Sc1c(C(N)=O)sc2ccccc12`: 183 to 185 °C; for `CC(C)(CO)c1ccc(C(=O)Nc2cn3cc(-n4ccnc4)ccc3n2)cc1`: 278 to 280 °C.
In the case of `CCn1ncc2c(O)c3c(nc21)CCc1ccccc1C3=O`, the melting point was in the range of 154 to 155 °C.
Molecule `COC(=O)c1cc(SC#N)c(N)cc1OC` showed a melting point of 184 to 185 °C.
For the molecule `COc1cccc2cc3c(c(-c4ccc5c(c4)OCO5)c12)CNC3=O`, the melting point was in the range of 295 to 298 °C.
`CC(C)(C)[Si](C)(C)Oc1ccccc1-c1cc(-c2cccc([N+](=O)[O-])c2)c(C#N)c(NC(=O)c2cccs2)n1` gave a melting point of 106 to 108 °C.
Molecule `CCOC(=O)C1=C(COCC2COC(C)(C)O2)NC(C)=C(C(=O)OC)C1c1cccc(Cl)c1Cl` (configuration not stated) yielded a melting point of 135 to 137 °C.
The same measure for `O=C(O)c1ccc(-c2ccc3cc(CCCO)c(C45CC6CC(CC(C6)C4)C5)cc3c2)cc1`: 268 to 269 °C.
For `CCOC(=O)C1=C(C)NC(C(OCC)OCC)=C(C(=O)OCC)C1c1cccc(O)c1` (configuration not stated), the melting point fell in the range of 107 to 108 °C.
As for `CC(=O)Nc1c(C(=O)c2cc(-c3ccccc3)no2)[nH]c2cc(Cl)ccc12`, the figure is 209 to 210 °C; as for `Cc1nc(NC(=O)c2cnn3c(C(F)(F)F)cc(-c4ccc(C(F)(F)F)cc4)nc23)sc1S(=O)(=O)N(CCO)CCO`, 214 °C; as for `Fc1ccc(C(=Cc2ccccc2)C(F)(F)F)cc1`, 43 to 45 °C.
The same measure for `CC1(C)Cc2cccc(Cl)c2C=[N+]1[O-]`: 110 to 111 °C.
For the molecule `COc1cn(C)c(=O)c(O)n1`, the melting point fell in the range of 201 to 204 °C.
For the molecule `COC(=O)C1=C(C)NC(=S)N(S(C)(=O)=O)C1c1cccc([N+](=O)[O-])c1` (configuration not stated), the melting point was in the range of 188 to 190 °C.
The molecule `O=C(Nc1ccc2c(c1)CCC2)c1ccccc1C(c1ccc(O)cc1)c1ccc(O)cc1` registered a melting point of 220 to 223 °C.
`CCCc1c(OCCOc2ccc(S(=O)(=O)c3nnn[nH]3)cc2)ccc(C(C)=O)c1O` came in with a melting point of 88 to 90 °C.
The same measure for `Nc1cc(-c2ccccc2)nn1-c1c(Cl)cc(C(F)(F)F)cc1Cl`: 142 °C.
As for `CC(C)(C)c1cc(-c2nnc(NC(N)=O)s2)cc(C(C)(C)C)c1O`, the figure is more than 270 °C; as for `COC(=O)c1ccc(Cn2cnc3c(Cl)nc(N)nc32)cc1`, 150 to 155 °C.
Turning to `Nc1cc(I)c(I)cc1N`, the melting point fell in the range of 135 to 136 °C.
The molecule `N#Cc1ccc(Oc2ccc(F)cc2)nc1` showed a melting point of 120 to 121 °C.
As for `N#Cc1cccc(Oc2ncccc2O)c1`, the figure is 130 to 133 °C; as for `COc1ccc(/C(=C\C=C\C(=O)O)C2CC2)cc1`, 154 to 156 °C; as for `CCc1oc2ccc([N+](=O)[O-])cc2c1C(=O)c1ccc(OC)cc1`, 130 °C.
As for `Cc1cc(C)c2cc(-c3ccccc3)c(=O)[nH]c2n1`, the figure is 258 to 260 °C; as for `COc1cc2c(cc1Br)CC=C2CCNC(C)=O`, 146 to 148 °C.
The same measure for `CCn1nc(C2CC2)c(C(=O)O)c1Cc1ccc(-c2ccccc2S(=O)(=O)NC(=O)c2ccccc2)cc1`: 217 °C; for `COc1cc(C2=C(c3cn(CCCNC(=O)C(N)CC(C)C)c4ccccc34)C(=O)NC2=O)cc(OC)c1OC` (configuration not stated): 172 to 173 °C; for `CN1C(=O)CC[C@]2(C)c3ccc(-c4cccc(NC(=O)C(C)(C)C)c4)cc3CC[C@@H]12`: 95 to 98 °C.
Regarding `Cc1oc(-c2ccccc2)nc1C(O)COc1ccc(CCCC2OC(=O)NC2=O)cc1` (configuration not stated), the melting point was in the range of 146 to 147 °C.
As for `CS(=O)(=O)NC(=O)C1(CCCCCCCCCCCCC2(C(=O)NCCO)CC2)CC1`, the figure is 104 to 105 °C.
The same measure for `C=CCOC(=O)C(C)N(C(=O)CCl)c1c(C)cccc1C` (configuration not stated): 55 to 56 °C.
`CNC(=NO)NCc1ccccc1` returned a melting point of 97 to 99 °C.
In the case of `CSC(=O)C(C#N)C(=O)Nc1ccc(C(F)(F)F)cc1` (configuration not stated), the melting point lay in the range of 196 to 198 °C.
As for `O=[N+]([O-])c1cc(I)ccc1Nc1cccc(-c2cncnc2)c1`, the figure is 214 to 217 °C.
For `CCOC(=O)C1=C(CO)NC=C(C(=O)OC)C1c1ccccc1Cl` (configuration not stated), the melting point lay in the range of 187 to 188 °C.
As for `COc1ccc(-c2ccc(C(=O)Nc3ccc4cc(CN5CCCCC5)cnc4c3C)cc2F)cc1`, the figure is 148 to 149 °C.
As for `CC(C)(C)OC(=O)N[C@H]1C=C[C@@H](CO)C1`, the figure is 68 to 70 °C; as for `CC1(C)CN(Cc2cc3ncccc3o2)c2nc(-c3ccncc3)cc(=O)n2C1`, 170 to 171 °C; as for `CCOC(=O)C(NC(=O)CCl)c1cscn1` (configuration not stated), 145 to 146 °C.
